Laboratory results taken from article PMC10046037, “GABRG2 Variants Associated with Febrile Seizures” (Biomolecules, 2023).

Target: T1, α1β3γ2 GABAA receptor, γ2R215H variant (Homo sapiens, UniProt P14867+P18507+P28472, R215H)
T1 construct: expressed in transfected cells; host or cells: HEK293T
T1 sequence (P14867 28-456): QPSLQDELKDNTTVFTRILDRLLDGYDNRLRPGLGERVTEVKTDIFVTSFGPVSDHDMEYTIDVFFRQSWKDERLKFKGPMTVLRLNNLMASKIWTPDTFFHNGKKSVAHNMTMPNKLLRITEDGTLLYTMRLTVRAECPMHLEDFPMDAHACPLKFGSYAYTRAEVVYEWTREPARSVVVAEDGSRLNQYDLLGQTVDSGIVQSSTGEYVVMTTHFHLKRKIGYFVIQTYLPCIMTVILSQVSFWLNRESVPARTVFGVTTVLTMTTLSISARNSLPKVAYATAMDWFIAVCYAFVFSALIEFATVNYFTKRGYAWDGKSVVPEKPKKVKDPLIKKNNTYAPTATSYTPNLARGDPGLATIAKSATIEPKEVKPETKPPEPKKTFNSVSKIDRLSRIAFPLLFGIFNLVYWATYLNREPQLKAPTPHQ
T1 sequence (P28472 26-473 isoform P28472-2): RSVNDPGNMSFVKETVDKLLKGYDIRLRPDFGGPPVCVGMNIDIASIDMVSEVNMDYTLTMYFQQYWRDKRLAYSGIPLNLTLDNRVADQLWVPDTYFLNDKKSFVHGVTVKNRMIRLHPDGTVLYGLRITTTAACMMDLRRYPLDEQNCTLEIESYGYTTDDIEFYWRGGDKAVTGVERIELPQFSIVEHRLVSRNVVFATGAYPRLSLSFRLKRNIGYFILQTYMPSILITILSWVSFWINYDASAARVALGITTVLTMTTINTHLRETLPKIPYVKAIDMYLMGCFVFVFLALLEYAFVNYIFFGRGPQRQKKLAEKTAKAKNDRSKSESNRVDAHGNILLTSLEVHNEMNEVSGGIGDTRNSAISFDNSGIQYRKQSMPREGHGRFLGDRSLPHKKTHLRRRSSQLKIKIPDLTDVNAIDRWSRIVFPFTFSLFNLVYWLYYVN
T1 sequence (P18507 40-475 R215H): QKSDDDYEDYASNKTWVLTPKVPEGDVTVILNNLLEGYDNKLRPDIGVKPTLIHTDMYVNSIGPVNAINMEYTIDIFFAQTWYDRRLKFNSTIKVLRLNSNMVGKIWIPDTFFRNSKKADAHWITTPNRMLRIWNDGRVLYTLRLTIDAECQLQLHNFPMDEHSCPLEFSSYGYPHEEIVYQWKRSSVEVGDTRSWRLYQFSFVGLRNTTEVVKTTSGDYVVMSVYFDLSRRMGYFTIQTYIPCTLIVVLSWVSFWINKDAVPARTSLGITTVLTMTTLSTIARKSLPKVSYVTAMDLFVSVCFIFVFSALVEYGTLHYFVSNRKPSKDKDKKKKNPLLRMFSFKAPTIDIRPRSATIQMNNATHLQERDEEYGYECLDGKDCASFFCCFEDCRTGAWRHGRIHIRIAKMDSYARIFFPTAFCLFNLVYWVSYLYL
Test: Automated patch clamp of GABA-elicited currents (SyncroPatch 384PE), γ2R215H
Format: cell-based
Settings: mean
Method: The coding sequences of human α1 (GABRA1, NM_000806), β3 (GABRB3, NM_021912), and γ2 (GABRG2, NM_198904.2) GABAAR subunits were subcloned into the pcDNA3.1 expression vectors (Invitrogen, Waltham, MA, USA).
HEK293T cells (ATCC, CRL-11268) were cultured at 37 °C in a humidified 5% CO2 incubator and maintained in Dulbecco’s modified Eagle’s medium (Invitrogen) supplemented with 10% fetal bovine serum (Life Technologies, Carlsbad, CA, USA), and 100 IU/mL of penicillin/streptomycin (Life Technologies). For the expression experiments, 4 × 10^5 cells were transfected using polyethylenimine (PEI) reagent (40 kD, Polysciences, Warrington, PA, USA) at a DNA: to transfection reagent ratio of 1:2.5 and harvested 36 h after transfection. To express WT and variant α1β3γ2 receptors, a total of 3 µg of α1, β3, and γ2 (WT or mutant) subunit cDNAs were transfected at a ratio of 1:1:1 into 60 mm culture dishes. For the mock-transfected condition, an empty pcDNA3.1 vector was added for a final cDNA transfection amount of 3 μg. For the electrophysiology experiments, 2.5 × 10^5 cells were plated in 100 mm culture dishes and transfected after 24 h with 3 μg of cDNA of each α1, β3, γ2 (wild-type or mutant) subunit, using X-tremeGENE HP DNA transfection Reagent (Roche Diagnostics, Basel, Switzerland), following the manufacturer’s protocol. Recordings were obtained forty-eight hours after transfection.
Whole-cell patch clamp recordings were conducted according to the manufacturer’s standard procedure for the SyncroPatch 384 [31]. […] Using PatchControl 384, electrophysiological parameters, such as seal resistance, capacitance, and series resistance, were determined for each well after the application of a test pulse, and subsequently monitored over time. […] The currents were normalized to the maximal response of each well, and the concentration–response curves were calculated from single-point additions. The EC50 values for each variant or wild-type receptor were calculated across multiple wells for each experimental condition.

- IMAX (maximal GABA-evoked peak current) (1 mM GABA for 5 ms, HEK293T): 0.61 nA
- IMAX variant/IMAX WT (1 mM GABA): 30.44%
- Rise Time (10–90% rise time, 1 mM GABA for 5 ms, HEK293T): 31.68 ms
Compound: NCCCC(=O)O [GABA, γ-aminobutyric acid]
